Data taken from patent US20250144067A1, “PERSONALIZED STARVATION THERAPY FOR CANCER” (Faeth Therapeutics, Inc., priority 2021, published 2025).
Where a name gives a salt, the structure may show the parent alone. Read-outs that look alike come from different tables or passages of the source.

Experiments:
[1] = test system: NCI-H292 lung cancer cells; assay: FDA drug screening, complete media vs cholesterol-free media without statin (TABLE 1); type: cell-based, human
[2] = test system: NCI-H292 lung cancer cells; assay: FDA drug screening, complete media vs cholesterol-free media with simvastatin (TABLE 2); type: cell-based, human
[3] = Complete minus Cholesterol-free, greater than 0 enhanced anti-cancer activity, about 0 neutral, below 0 antagonist
[4] = NCI-H292 cells, FDA drug library screen, cholesterol-free media without statin
[5] = NCI-H292 cells, FDA drug library screen, complete media
[6] = NCI-H292 cells, FDA drug library screen, cholesterol-free media with simvastatin 0.04 μM
[7] = complete media vs cholesterol-free media + simvastatin (0.04 μM), >0 enhanced anti-cancer activity, about 0 neutral, <0 antagonist
[8] = NCI-H292 cells, cholesterol-free media without statin, FDA drug library screen
[9] = NCI-H292 cells, complete media, FDA drug library screen
[10] = complete vs cholesterol-free media, >0 enhanced anti-cancer activity, about 0 neutral, <0 antagonist
[11] = complete media minus cholesterol-free media + simvastatin, >0 enhanced anti-cancer activity, about 0 neutral, <0 antagonist
[12] = NCI-H292 cells, cholesterol-free media with simvastatin 0.04 μM, FDA drug library screen (TABLE 2)
[13] = NCI-H292 cells, complete media, FDA drug library screen (TABLE 2)
[14] = complete media minus cholesterol-free media + simvastatin (0.04 μM), >0 enhanced anti-cancer activity, about 0 neutral, <0 antagonist
[15] = NCI-H292 cells, cholesterol-free media without statin
[16] = NCI-H292 cells, FDA library drug in cholesterol-free media with simvastatin 0.04 μM
[17] = NCI-H292 cells, FDA library drug in complete media
[18] = Complete minus Cholesterol-free, greater than 0 enhanced anti-cancer activity, about 0 neutral, below 0 antagonists
[19] = NCI-H292 cells in cholesterol-free media without statin
[20] = NCI-H292 cells in complete media

Compound C[C@@H]1C/C=C/C=C/C=C/C=C/[C@H](O[C@@H]2O[C@H](C)[C@@H](O)[C@H](N)[C@@H]2O)C[C@@H]2O[C@](O)(C[C@@H](O)C[C@H]3O[C@@H]3/C=C/C(=O)O1)C[C@H](O)[C@H]2C(=O)O [Natamycin] has a Difference [1, 3] of −0.07, a Cholesterol-free [1, 4] of 1.061 and a Complete [1, 5] of 0.9893. The “Cholesterol-free media + simvastatin (0.04 μM)” value [2, 6] was 1.218, the “Complete Media” value [2, 5] was 1.127 and the Difference [2, 7] was −0.09.

For CC(C)[C@H]1CC[C@H](C(=O)N[C@H](Cc2ccccc2)C(=O)O)CC1 [Nateglinide], the Cholesterol-free [1, 8] was 1.149, the Complete [1, 9] was 1.887 and the Difference [1, 10] was 0.74. The “Cholesterol-free media + simvastatin (0.04 μM)” value [2, 6] was 1.052, the “Complete Media” value [2, 5] was 1.823 and the Difference [2, 11] was 0.77.

With OC(CNCC(O)C1CCc2cc(F)ccc2O1)C1CCc2cc(F)ccc2O1 (centres unmarked) [Nebivolol (hydrochloride)] the Cholesterol-free [1, 8] was 0.567, the Difference [1, 10] was 0.61 and the “Cholesterol-free media + simvastatin (0.04 μM)” value [2, 12] was 0.9013. The “Complete Media” value [2, 13] was 0.8774 and the Difference [2, 14] was −0.02.

In the case of [NH2][Pt]1([NH2])[O]CC(=O)[O]1 [Nedaplatin], the Difference ([1]; Complete minus Cholesterol-free, […]) is reported as −0.25, the Cholesterol-free [1, 15] is reported as 1.253 and the Complete ([1]; NCI-H292 cells, complete media) is reported as 1.005. For the same compound, the “Cholesterol-free media + simvastatin (0.04 μM)” value ([2]; NCI-H292 cells, drug in cholesterol-free media with simvastatin 0.04 μM) was 1.191, the “Complete Media” value ([2]; NCI-H292 cells, drug in complete media) was 0.986 and the Difference ([2]; complete media vs cholesterol-free media + simvastatin (0.04 μM), […]) was −0.20.

In the case of CCCc1c2oc(C(=O)O)cc(=O)c2cc2c(=O)cc(C(=O)O)n(CC)c12 [Nedocromil], the Cholesterol-free [1, 8] is reported as 1.678, the Complete [1, 9] is reported as 1.893 and the Difference [1, 10] is reported as 0.22. The “Cholesterol-free media + simvastatin (0.04 μM)” value [2, 16] was 1.951, the “Complete Media” value [2, 17] was 1.336 and the Difference [2, 7] was −0.61.

For CCc1nn(CCCN2CCN(c3cccc(Cl)c3)CC2)c(=O)n1CCOc1ccccc1 [Nefazodone (hydrochloride)], the Cholesterol-free [1, 8] was 0.8256, the Complete [1, 9] was 1.655 and the Difference [1, 10] was 0.83. The “Cholesterol-free media + simvastatin (0.04 μM)” value [2, 16] was 1.025, the “Complete Media” value [2, 17] was 0.2752 and the Difference [2, 7] was −0.75.

CN1CCOC(c2ccccc2)c2ccccc2C1 (centres unmarked) [Nefopam (hydrochloride)] gave a Cholesterol-free [1, 15] of 1.379, a Complete ([1]; NCI-H292 cells, complete media) of 0.9673 and a Difference ([1]; complete vs cholesterol-free media, greater than 0 enhanced anti-cancer activity, about 0 neutral, below 0 antagonists) of −0.41. For the same compound, the “Cholesterol-free media + simvastatin (0.04 μM)” value [2, 12] was 1.077, the “Complete Media” value [2, 13] was 1.041 and the Difference [2, 14] was −0.04.

COc1nc(N)nc2c1ncn2[C@@H]1O[C@H](CO)[C@@H](O)[C@@H]1O [Nelarabine] gave a Difference [1, 18] of −0.59, a Cholesterol-free [1, 19] of 1.291 and a Complete [1, 20] of 0.7049. For the same compound, the “Cholesterol-free media + simvastatin (0.04 μM)” value [2, 12] was 0.8366, the “Complete Media” value [2, 13] was 0.8526 and the Difference [2, 14] was 0.02.

Cc1c(O)cccc1C(=O)N[C@@H](CSc1ccccc1)[C@H](O)CN1C[C@H]2CCCC[C@H]2C[C@H]1C(=O)NC(C)(C)C [Nelfinavir] gave a Difference ([1]; Complete minus Cholesterol-free, >0 enhanced anti-cancer activity, about 0 neutral, <0 antagonist) of −0.25, a Cholesterol-free [1, 15] of 1.095 and a Complete ([1]; NCI-H292 cells, complete media) of 0.8463. For the same compound, the “Cholesterol-free media + simvastatin (0.04 μM)” value [2, 16] was 1.243, the “Complete Media” value [2, 17] was 0.8828 and the Difference [2, 7] was −0.36.

With NC[C@@H]1O[C@H](O[C@H]2[C@@H](O)[C@H](O[C@@H]3[C@@H](O)[C@H](N)C[C@H](N)[C@H]3O[C@H]3O[C@H](CN)[C@@H](O)[C@H](O)[C@H]3N)O[C@@H]2CO)[C@H](N)[C@@H](O)[C@@H]1O.O=S(=O)(O)O [Neomycin (sulfate)] the Difference [1, 3] was −0.17, the Cholesterol-free [1, 4] was 1.592 and the Complete [1, 5] was 1.421. The “Cholesterol-free media + simvastatin (0.04 μM)” value [2, 6] was 0.8549, the “Complete Media” value [2, 5] was 1.021 and the Difference [2, 11] was 0.17.

CN(C)C(=O)Oc1cccc([N+](C)(C)C)c1.[Br-] [Neostigmine (Bromide)] showed a Cholesterol-free [1] of 1.008, a Complete [1] of 0.8252 and a Difference [1] of −0.18. For the same compound, the “Cholesterol-free media + simvastatin (0.04 μM)” value [2] was 0.9188, the “Complete Media” value [2] was 1.066 and the Difference [2] was 0.15.

Compound CN(C)C(=O)Oc1cccc([N+](C)(C)C)c1.COS(=O)(=O)[O-] [Neostigmine (methyl sulfate)] has a Cholesterol-free [1, 15] of 1.718, a Complete ([1]; NCI-H292 cells, complete media) of 1.281 and a Difference ([1]; complete vs cholesterol-free media, […]) of −0.44. The “Cholesterol-free media + simvastatin (0.04 μM)” value [2, 6] was 0.8206, the “Complete Media” value [2, 5] was 1.308 and the Difference ([2]; complete media minus cholesterol-free media + simvastatin, […]) was 0.49.

Compound NC(=O)Cc1cccc(C(=O)c2ccccc2)c1N [Nepafenac] has a Difference [1, 18] of −0.71, a Cholesterol-free [1, 19] of 1.612 and a Complete [1, 20] of 0.8984. For the same compound, the “Cholesterol-free media + simvastatin (0.04 μM)” value [2, 12] was 1.737, the “Complete Media” value [2, 13] was 1.699 and the Difference [2, 14] was −0.04.

Work on CCOc1cc2ncc(C#N)c(Nc3ccc(OCc4ccccn4)c(Cl)c3)c2cc1NC(=O)/C=C/CN(C)C [Neratinib] yielded a Cholesterol-free [1] of 0.06707, a Complete [1] of 0.1268 and a Difference [1] of 0.06. The “Cholesterol-free media + simvastatin (0.04 μM)” value [2] was 0.3387, the “Complete Media” value [2] was 0.3007 and the Difference [2] was −0.04.
